{"source": "patent US8129340B2", "about": "“Inhibitors of protein phosphatase 1, GADD34 and protein phosphatase 1/GADD34 complex, preparation and uses thereof” (Institut Gustave Roussy, priority 2006, dated 2012)", "key": {"[1]": {"test_system": "CT26 tumour cells", "test": "Anti-tumour vaccination: dying treated CT26 cells injected in one flank, later challenge with live tumour cells", "assay_type": "in vivo, BALB/c mice", "conditions": "without cell death inducer"}, "[2]": {"test_system": "cell surface CRT", "test": "Fluorescence detection of cell surface CRT on CT26 cells (cytofluorometry)", "assay_type": "cell-based, murine", "conditions": "agent alone", "protocol": "FIG. 1SA, FIG. 1SB: Kinetics of CRT exposure. CT26 cells were treated with mitoxantrone for the indicated period, followed by immunofluorescence staining with a CRT-specific antibody and cytofluorometric analysis.\nFIG. 2E: Correlation between CRT exposure and immunogenicity. The surface exposure of CRT was determined by immunofluorescence cytometry while gating on viable (propidium iodine-negative) cells (inserts) and was correlated with the immunogenicity of cell death (as determined in FIG. 1). CO, control; Tg, thapsigargin; Tu, tunicamycin.\nFIG. 5E: Kinetics of CRT exposure determined by FACS analysis after incubation of cells with the indicated agents.\nFIG. 5F-FIG. 5G: PP1/GADD34 inhibitors render cell immunogenic via CRT. Tumour cells were first transfected with a control siRNA or a CRT-specific siRNA and then treated in vitro with etoposide, alone or in combination with PP1/GADD34 inhibitors. […] The results represent the % of tumour free mice (comprising a total of 12 to 18 mice per group).\nCT26 cells (on a glass slide or in 12-well plates) were first washed with FACS buffer (1×PBS, 5% fetus bovine serum, and 0.1% sodium azide) and then incubated with rabbit anti-mouse CRT antibody (1:100, Stressgen) in FACS buffer at 4° C. for 30 min. Cells reacted with anti-rabbit IgG (H+L) Alexa fluor 488-conjugates (1:500) in FACS buffer at 4° C. for 30 min. After washing three times with FACS buffer, surface CRT was detected by cytofluorometric analysis on a FACS Vantage. In some experiments, cells were fixed with 4% paraformaldehyde, counterstained with Hoechst (2 μM; Sigma), followed by fluorescence microscopic assessment with a Leica IRE2 microscope equipped with a DC300F camera."}, "[3]": {"test_system": "ERp57", "test": "Flow cytometric detection of surface ERp57 on HeLa cells", "assay_type": "cell-based, human", "conditions": "150 nM, 2 h", "protocol": "HeLa cells were treated with or without mitoxantrone (MTX, 1 μM) or tautomycin (Tau, 150 nM, Sigma) for 2 h. Cells were washed twice with PBS and fixed in PFA (4% w/v) for 5 min. HeLa cells were stained with an antibody against Erp57 (pAb from Abcam, ab10827) at 1:200 dilution or isotype control, in staining buffer (PBS, 1% FCS) for 30 min on ice, followed by washing. An anti-rabbit Alexa fluor 488 immunoglobulin conjugate (Molecular Probes-Invitrogen) diluted at 1:500 was added for an additional 30 min on ice before washing and analysed by flow cytometry (FACScan, Becton Dickinson). Propidium Iodide (50 μg/ml, Becton Dickinson) was added to the samples to label and exclude permeabilized (dead) cells. The CellQuest software was used to analyse the mean fluorescence intensity (MFI) and the percentage of ERp57 positive cells."}, "[4]": {"test_system": "CT26 tumours", "test": "Intratumoural treatment of established CT26 tumours in immunocompetent mice", "assay_type": "in vivo, BALB/c mice (wild type)"}, "[5]": {"test_system": "CT26 tumours", "test": "Intratumoural treatment of established CT26 tumours in immunodeficient mice", "assay_type": "in vivo, athymic nu/nu Balb/c mice", "conditions": "single intratumoural injection"}}, "data": [{"smiles": "CO[C@H]([C@H](O)CC(=O)[C@@H](C)[C@@H](O)CC[C@@H](C)[C@@H]1O[C@]2(CC[C@@H](C)[C@H](CC[C@H](C)C(C)=O)O2)CC[C@@H]1C)[C@H](OC(=O)C[C@@H](O)C1=C(C)C(=O)OC1=O)C(C)C", "note": "[tautomycin]", "values": [{"measurement": "induction of immunogenic cell death by the inhibitor alone", "setting": "[1]", "value": "not sufficient to induce immunogenic cell death"}, {"measurement": "induction of CRT exposure at the cell surface", "setting": "[2]", "value": "efficiently induced"}, {"measurement": "surface exposure of ERp57, HeLa cells", "setting": "[3]", "value": "stimulates the surface exposure or ERp57"}, {"measurement": "therapeutic effect combined with a cell death inducer (etoposide or mitomycin C), immunocompetent mice", "setting": "[4]; intratumoural injection with etoposide or mitomycin C", "value": "stable disease or complete tumour regression"}, {"measurement": "therapeutic effect of single agent on established tumours, immunocompetent mice", "setting": "[4]; single intratumoural injection, 14-day-old CT26 tumours", "value": "no major therapeutic effect"}, {"measurement": "therapeutic effect of single agent on established tumours, nu/nu mice", "setting": "[5]", "value": "no major therapeutic effect"}]}]}
